Like-named read-outs stand apart in the source and are kept apart here.
Assays:
Human αvβ3 = molecular target: T1, Human αvβ3 (Homo sapiens, UniProt P05106+P06756); assay: In Vitro Solid Phase Purified αvβ3 Binding Assay (vitronectin/αvβ3); details: vitronectin binding to immobilized purified human αvβ3, mean ± spread
T1 construct: purchased Chemicon International Inc., Temecula, Calif
Procedure: In Vitro Solid Phase Purified αvβ3 Binding Assay
(§1) Human αvβ3 (Chemicon International Inc., Temecula, Calif.), at a concentration of 1 μg/ml dissolved in Tris buffer (20 mM Tris, 1 mM CaCl2, 1 mM MgCl2, 10 μM MnCl2, 150 mM NaCl), was immobilized on Immulon 96 well plates (Dynex Technologies, Chantilly, Va.) overnight at 4° C. Plates were washed and treated with blocking buffer (3% BSA in Tris buffer) for 2 h at 37° C. Plates were then rinsed 2 times with assay buffer comprised of Tris buffer. Synthesized compounds were added to wells in duplicate immediately prior to the addition of 2 nM vitronectin (Sigma, St. Louis, Mo.). Following a 3 hour incubation at 37° C., plates were washed 5 times in assay buffer. An anti-human vitronectin IgG rabbit polyclonal antibody (Calbiochem, San Diego, Calif.) was added (1:2000) and plates were incubated for 1 hour at room temperature. VectaStain ABC peroxidase kit reagents (Vector Laboratories, Burlingame, Calif.) employing a biotin labeled anti-rabbit IgG, were utilized for detection of bound antibody. Plates were read at 490 nm on a Molecular Devices (Sunnyvale, Calif.) microplate reader.

human purified αVβ5 = molecular target: T2, human purified αVβ5 (Homo sapiens, UniProt P06756+P18084); assay: In Vitro Solid Phase Purified αcβ5 Binding Assay (vitronectin/αVβ5); details: vitronectin binding to immobilized purified human αVβ5, mean ± spread
T2 construct: purchased Chemicon International, Inc
Procedure: as §1
In Vitro Solid Phase Purified αcβ5 Binding Assay
All other aspects of the assay including buffers, reagents and incubation times remain unchanged.

GP IIb/IIIa = GP IIb/IIIa (Homo sapiens, UniProt P05106+P08514); assay: In Vitro Solid Phase Purified GP IIb/IIIa Binding Assay (biotinylated fibrinogen); details: biotinylated fibrinogen binding to immobilized purified GP IIb/IIIa; mean ± spread; read-out: αIIbβ3 IC50
Procedure: In Vitro Solid Phase Purified GP IIb/IIIa Binding Assay
The plate was covered and incubated overnight at 4° C. The GP IIb/IIIa solution was discarded and 150 μL of 5% BSA was added and incubated at RT for 1-3 h. The plate was washed extensively with modified Tyrodes buffer. Biotinylated fibrinogen (25 μL/well) at 2× final concentration was added to the wells that contain the test compounds (25 μL/well). The plate was covered and incubated at RT for 2-4 h. Twenty minutes prior to incubation completion, one drop of Reagent A (VectaStain ABC Horseradish Peroxidase kit, Vector Laboratories, Inc.) and one drop Reagent B were added with mixing to 5 mL modified Tyrodes buffer mix and let stand. The ligand solution was discarded and the plate washed (5×200 μL/well) with modified Tyrodes buffer. […] The Vecta Stain solution was discarded and the wells washed (5×200 μL/well) with modified Tyrodes buffer. Developing buffer (10 mL of 50 mM citrate/phosphate buffer @ pH 5.3, 6 mg o-phenylenediamine, 6 μL 30% H2O2; 50 μL/well) was added and incubated at RT for 3-5 min and then 2 N H2SO4 (50 μL/well) was added.

Chain of GP IIb/IIIa (P08514 32-887 limits assumed): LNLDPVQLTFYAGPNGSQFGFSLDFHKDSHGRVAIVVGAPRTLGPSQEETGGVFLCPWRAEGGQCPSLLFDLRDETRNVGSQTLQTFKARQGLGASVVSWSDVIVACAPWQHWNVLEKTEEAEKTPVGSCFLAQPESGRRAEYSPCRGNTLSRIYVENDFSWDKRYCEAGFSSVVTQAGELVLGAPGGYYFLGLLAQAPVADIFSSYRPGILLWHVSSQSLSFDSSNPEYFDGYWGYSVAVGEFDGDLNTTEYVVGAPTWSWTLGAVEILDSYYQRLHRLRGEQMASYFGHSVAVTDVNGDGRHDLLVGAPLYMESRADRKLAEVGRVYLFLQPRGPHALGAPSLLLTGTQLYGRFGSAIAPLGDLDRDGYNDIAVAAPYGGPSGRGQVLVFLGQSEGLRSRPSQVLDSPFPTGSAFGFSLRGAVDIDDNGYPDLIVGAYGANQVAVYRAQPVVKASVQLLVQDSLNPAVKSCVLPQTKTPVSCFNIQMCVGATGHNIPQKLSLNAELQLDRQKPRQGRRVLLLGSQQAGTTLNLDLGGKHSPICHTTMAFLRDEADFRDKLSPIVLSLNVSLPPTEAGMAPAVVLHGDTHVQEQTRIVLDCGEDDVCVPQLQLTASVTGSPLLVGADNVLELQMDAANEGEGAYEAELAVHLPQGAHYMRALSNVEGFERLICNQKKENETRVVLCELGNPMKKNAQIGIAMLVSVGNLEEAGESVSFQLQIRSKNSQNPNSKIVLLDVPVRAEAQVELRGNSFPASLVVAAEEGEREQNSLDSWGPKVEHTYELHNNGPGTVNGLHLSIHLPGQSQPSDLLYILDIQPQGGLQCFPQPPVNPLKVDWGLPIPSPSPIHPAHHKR
Chain of GP IIb/IIIa (P08514 891-1039 partner limits assumed): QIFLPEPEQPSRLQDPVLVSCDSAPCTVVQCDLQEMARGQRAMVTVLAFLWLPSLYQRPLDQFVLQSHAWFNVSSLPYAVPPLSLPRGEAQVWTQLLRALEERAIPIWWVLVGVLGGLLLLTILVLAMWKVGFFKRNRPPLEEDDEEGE
Chain of GP IIb/IIIa (P05106 27-788): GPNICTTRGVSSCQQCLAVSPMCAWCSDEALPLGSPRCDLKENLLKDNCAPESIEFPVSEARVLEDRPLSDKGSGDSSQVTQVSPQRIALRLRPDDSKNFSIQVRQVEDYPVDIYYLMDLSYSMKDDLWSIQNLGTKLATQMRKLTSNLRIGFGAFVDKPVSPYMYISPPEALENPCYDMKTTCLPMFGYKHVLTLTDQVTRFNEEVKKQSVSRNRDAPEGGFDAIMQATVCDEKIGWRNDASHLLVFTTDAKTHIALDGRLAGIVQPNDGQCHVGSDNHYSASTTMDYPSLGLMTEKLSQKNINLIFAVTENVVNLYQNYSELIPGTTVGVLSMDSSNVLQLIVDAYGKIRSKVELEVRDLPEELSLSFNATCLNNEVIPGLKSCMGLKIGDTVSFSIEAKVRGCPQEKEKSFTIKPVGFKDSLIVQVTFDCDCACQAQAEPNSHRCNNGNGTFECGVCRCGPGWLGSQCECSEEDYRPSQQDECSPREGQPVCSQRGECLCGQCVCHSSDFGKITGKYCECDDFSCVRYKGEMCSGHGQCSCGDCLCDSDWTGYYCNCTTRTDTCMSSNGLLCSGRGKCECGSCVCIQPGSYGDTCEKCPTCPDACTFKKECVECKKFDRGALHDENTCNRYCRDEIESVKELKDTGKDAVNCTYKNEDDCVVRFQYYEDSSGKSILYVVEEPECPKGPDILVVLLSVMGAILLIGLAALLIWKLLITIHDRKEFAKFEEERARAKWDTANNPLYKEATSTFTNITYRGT
T1 sequence (P06756 31-889 limits assumed): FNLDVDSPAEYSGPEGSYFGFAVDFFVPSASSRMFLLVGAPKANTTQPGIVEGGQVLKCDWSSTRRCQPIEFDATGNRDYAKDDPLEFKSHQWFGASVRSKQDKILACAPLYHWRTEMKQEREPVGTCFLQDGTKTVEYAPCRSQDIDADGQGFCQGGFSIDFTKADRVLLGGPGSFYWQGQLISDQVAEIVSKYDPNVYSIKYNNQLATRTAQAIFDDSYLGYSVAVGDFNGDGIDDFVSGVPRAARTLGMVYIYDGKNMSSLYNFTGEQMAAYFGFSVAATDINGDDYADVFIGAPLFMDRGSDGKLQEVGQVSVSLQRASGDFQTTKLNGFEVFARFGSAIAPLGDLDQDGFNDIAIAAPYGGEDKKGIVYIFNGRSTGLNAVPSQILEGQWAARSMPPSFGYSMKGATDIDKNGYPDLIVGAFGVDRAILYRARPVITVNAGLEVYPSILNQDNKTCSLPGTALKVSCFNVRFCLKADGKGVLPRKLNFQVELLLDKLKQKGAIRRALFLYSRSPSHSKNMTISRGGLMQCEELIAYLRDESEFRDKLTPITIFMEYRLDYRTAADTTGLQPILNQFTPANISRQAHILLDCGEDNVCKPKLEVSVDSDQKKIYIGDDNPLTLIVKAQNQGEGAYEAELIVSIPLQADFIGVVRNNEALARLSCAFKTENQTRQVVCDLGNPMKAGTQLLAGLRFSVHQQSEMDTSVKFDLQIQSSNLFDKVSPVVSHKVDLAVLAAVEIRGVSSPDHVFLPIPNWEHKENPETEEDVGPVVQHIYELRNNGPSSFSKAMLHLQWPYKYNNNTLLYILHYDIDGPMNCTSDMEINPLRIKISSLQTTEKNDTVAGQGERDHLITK
T1 sequence (P06756 891-1048 partner limits assumed): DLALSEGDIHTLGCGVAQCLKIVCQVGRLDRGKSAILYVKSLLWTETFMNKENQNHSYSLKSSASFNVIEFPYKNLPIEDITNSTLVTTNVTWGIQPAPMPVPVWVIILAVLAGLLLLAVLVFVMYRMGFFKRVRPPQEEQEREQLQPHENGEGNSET
T1 sequence (P05106 27-788): as the sequence (P05106 27-788) above
T2 sequence (P06756 31-889 limits assumed): as the sequence (P06756 31-889 limits assumed) above
T2 sequence (P06756 891-1048 partner limits assumed): as the sequence (P06756 891-1048 partner limits assumed) above
T2 sequence (P18084 24-799): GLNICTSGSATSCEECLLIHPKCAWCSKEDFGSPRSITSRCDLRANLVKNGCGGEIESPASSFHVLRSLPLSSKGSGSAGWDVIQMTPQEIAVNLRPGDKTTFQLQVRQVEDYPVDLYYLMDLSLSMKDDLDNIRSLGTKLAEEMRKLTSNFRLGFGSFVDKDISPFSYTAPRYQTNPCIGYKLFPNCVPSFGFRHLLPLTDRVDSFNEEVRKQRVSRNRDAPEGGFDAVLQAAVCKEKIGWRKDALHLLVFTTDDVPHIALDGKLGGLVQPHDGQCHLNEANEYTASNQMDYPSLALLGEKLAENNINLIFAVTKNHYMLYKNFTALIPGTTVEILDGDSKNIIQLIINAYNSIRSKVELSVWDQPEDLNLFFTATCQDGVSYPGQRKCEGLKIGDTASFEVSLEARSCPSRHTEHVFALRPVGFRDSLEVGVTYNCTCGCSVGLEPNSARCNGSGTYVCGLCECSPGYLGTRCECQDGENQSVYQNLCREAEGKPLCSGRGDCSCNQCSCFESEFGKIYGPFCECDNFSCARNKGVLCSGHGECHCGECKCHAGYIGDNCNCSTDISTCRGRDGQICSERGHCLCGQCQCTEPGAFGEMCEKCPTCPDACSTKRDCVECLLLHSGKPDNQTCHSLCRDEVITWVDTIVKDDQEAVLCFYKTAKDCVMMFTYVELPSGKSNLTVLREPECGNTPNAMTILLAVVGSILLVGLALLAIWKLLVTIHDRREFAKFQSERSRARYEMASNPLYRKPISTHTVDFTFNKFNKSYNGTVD

Compound: O=C(O)CC(CC1CCN(C(=O)CCc2ccc3c(n2)NCCC3)CC1)C1CNc2ccccc2C1 (single isomer, unassigned) [Cpd 19-2, 1,2,3,4-tetrahydro-β-[[1-[1-oxo-3-(5,6,7,8-tetrahydro-1,8-naphthyridin-2-yl)propyl]-4-piperidinyl]methyl]-3-quinolinepropanoic acid]
- IC50 (Human αvβ3; read-out: αvβ3IC50): 0.0013 ± 0.0001 µM
- IC50 (human purified αVβ5; read-out: αvβ5 IC50): 0.0092 ± 0.0004 µM
- IC50 (GP IIb/IIIa): 12900 nM

Compound: COc1ncc(C(CC(=O)O)CC2CCN(C(=O)CCc3ccc4c(n3)NCCC4)CC2)cn1 (stereo not drawn) [Cpd 48, 2-methoxy-β-[[1-[1-oxo-3-(5,6,7,8-tetrahydro-1,8-naphthyridin-2-yl)propyl]-4-piperidinyl]methyl]-5-pyrimidinepropanoic acid]
- IC50 (Human αvβ3; read-out: αvβ3IC50): 0.001 ± 0.0005 µM
- IC50 (human purified αVβ5; read-out: αvβ5 IC50): 0.0033 ± 0.0014 µM
- IC50 (GP IIb/IIIa): 1210 ± 200 nM

Compound: O=C(O)CC(c1ccc2c(c1)OCO2)C1CCN(C(=O)Cc2ccc3c(n2)NCCC3)CC1 (stereo not drawn) [Cpd 16, β-(1,3-benzodioxol-5-yl)-1-[(5,6,7,8-tetrahydro-1,8-naphthyridin-2-yl)acetyl]-4-piperidinepropanoic acid]
- IC50 (Human αvβ3; read-out: αvβ3IC50): 0.281 µM
- IC50 (human purified αVβ5; read-out: αvβ5 IC50): 0.775 µM
- IC50 (GP IIb/IIIa): 25400 nM

Compound: O=C(O)CC(c1ccc2c(c1)OCO2)C1CCN(C(=O)CCCc2ccc3c(n2)NCCC3)CC1 (stereo not drawn) [Cpd 15, β-(1,3-benzodioxol-5-yl)-1-[1-oxo-4-(5,6,7,8-tetrahydro-1,8-naphthyridin-2-yl)butyl]-4-piperidinepropanoic acid]
- IC50 (Human αvβ3; read-out: αvβ3IC50): 0.0019 ± 0.0002 µM
- IC50 (human purified αVβ5; read-out: αvβ5 IC50): 0.0334 ± 0.0063 µM
- IC50 (GP IIb/IIIa): 4030 ± 430 nM

Compound: O=C(O)CC(CCC1CCN(C(=O)c2cccc(NC3=NCCCN3)c2)CC1)c1cnc2ccccc2c1 (stereo not drawn) [Cpd 12, β-[2-[1-[3-[(1,4,5,6-Tetrahydro-2-pyrimidinyl)amino]benzoyl]-4-piperidinyl]ethyl]-3-quinolinepropanoic acid]
- IC50 (Human αvβ3; read-out: αvβ3IC50): 0.0042 ± 0.0014 µM
- IC50 (human purified αVβ5; read-out: αvβ5 IC50): 0.078 ± 0.017 µM
- IC50 (GP IIb/IIIa): 136 ± 3 nM

Compound: O=C(O)CC(CC1CCN(C(=O)CCc2ccc3c(n2)NCCC3)CC1)c1cnc2ccccc2c1 (stereo not drawn) [Cpd 32, β-[[1-[1-oxo-3-(5,6,7,8-tetrahydro-1,8-naphthyridin-2-yl)propyl]-4-piperidinyl]methyl]-3-quinolinepropanoic acid]
- IC50 (Human αvβ3; αvβ3IC50 (uM)): 0.0008 ± 0.0002 µM
- IC50 (human purified αVβ5; αvβ5 IC50 (uM)): 0.0022 ± 0.0007 µM
- IC50 (GP IIb/IIIa): 1050 ± 560 nM

Compound: O=C(O)CC(CC1CCN(C(=O)c2cccc(NC3=NCCN3)c2)CC1)c1cccc(F)c1 (racemic) [Cpd 77]
- IC50 (Human αvβ3; read-out: αvβ3IC50): 0.138 µM
- IC50 (human purified αVβ5; read-out: αvβ5 IC50): 0.789 ± 0.065 µM

Compound: O=C(O)CC(C1CCN(C(=O)CCCc2ccc3c(n2)NCCC3)CC1)C1CNc2ccccc2C1 (single isomer, unassigned) [Cpd 5-3, 1,2,3,4-Tetrahydro-β-[1-[1-oxo-4-(5,6,7,8-tetrahydro-1,8-naphthyridin-2-yl)butyl]-4-piperidinyl]-3-quinolinepropanoic acid]
- IC50 (Human αvβ3; αvβ3IC50 (uM)): 0.161 µM
- IC50 (human purified αVβ5; read-out: αvβ5 IC50): > 5 µM

Compound: O=C(O)CC(CC1CCN(C(=O)CCc2ccc3c(n2)NCCC3)CC1)c1ccc2ccccc2c1 (single isomer, unassigned) [Cpd 56b, 3-Naphthalen-2-yl-4-[1-(3-5,6,7,8-tetrahydro-[1,8]naphthyridin-2-yl-propionyl)-piperidin-4-yl]-butyric acid]
- IC50 (Human αvβ3; read-out: αvβ3IC50): 0.326 ± 0.0894 µM
- IC50 (human purified αVβ5; read-out: αvβ5 IC50): 0.81 ± 0.104 µM

Compound: O=C(O)CCC1CCN(C(=O)CCc2cccc(NC3=NCCCN3)c2)CC1 [Cpd 2, 1-[1-Oxo-3-[3-[(1,4,5,6-tetrahydro-2-pyrimidinyl)amino]phenyl]propyl]-4-piperidinepropanoic acid]
- IC50 (Human αvβ3; read-out: αvβ3IC50): 5.4 µM
- IC50 (GP IIb/IIIa): 4780 ± 1010 nM

Compound: O=C(O)CC(CC1CCN(C(=O)CCc2ccc3c(n2)NCCC3)CC1)C1CNc2ccccc2C1 (single isomer, unassigned) [Cpd 19-3, 1,2,3,4-tetrahydro-β-[[1-[1-oxo-3-(5,6,7,8-tetrahydro-1,8-naphthyridin-2-yl)propyl]-4-piperidinyl]methyl]-3-quinolinepropanoic acid]
- IC50 (Human αvβ3; read-out: αvβ3IC50): 0.0447 ± 0.0204 µM
- IC50 (human purified αVβ5; read-out: αvβ5 IC50): 1.17 ± 0.02 µM

Compound: O=C(O)CC(CCC1CCN(C(=O)CCCNc2ccccn2)CC1)c1cccnc1 (stereo not drawn) [Cpd 9, β-[2-[1-[1-Oxo-4-(2-pyridinylamino)butyl]-4-piperidinyl]ethyl]-3-pyridinepropanoic acid]
- IC50 (Human αvβ3; read-out: αvβ3IC50): > 1 µM
- IC50 (GP IIb/IIIa): 8510 ± 2360 nM
